Measured values published in patent publication US11578083B2, “Pyrimidinium compounds and their mixtures for combating animal pests” (BASF SE, priority 2017, dated 2023).

Assays:
Type in all cases: in vivo
[1] = test system: green peach aphid (Myzus persicae); experiment: Test 2 green peach aphid, artificial diet (mixtures)
Source text: (§1) For evaluating control of green peach aphid (Myzus persicae) through systemic means the test unit consisted of 96-well-microtiter plates containing liquid artificial diet under an artificial membrane.
(§2) The compounds or mixtures were formulated using a solution containing 75% water and 25% DMSO. Concentrations of formulated compounds or mixtures were pipetted into the aphid diet, using a custom built pipetter, at two replications.
(§3) For experimental mixtures in these tests identical volumes of both mixing partners at the desired concentrations respectively, were mixed together.
(§4) After application, 5-8 adult aphids were placed on the artificial membrane inside the microtiter plate wells. The aphids were then allowed to suck on the treated aphid diet and incubated at 23±1° C., 50±5% RH for 3 days. Aphid mortality and fecundity was then visually assessed.

[2] = test system: tobacco budworm (Heliothis virescens); experiment: Test 4 tobacco budworm, insect diet with eggs (mixtures)
Description: (§5) For evaluating control of tobacco budworm (Heliothis virescens) the test unit consisted of 96-well-microtiter plates containing an insect diet and 15-25 H. virescens eggs.
The compounds or mixtures were formulated using a solution containing 75% water and 25% DMSO. Concentrations of formulated compounds or mixtures were sprayed onto the insect diet at 10 μl, using a custom built micro atomizer, at two replications.
as §3
(§6) After application, microtiter plates were incubated at 28±1° C., 80±5% RH for 5 days. Egg and larval mortality was then visually assessed.

[3] = test system: Greenhouse Whitefly (Trialeurodes vaporariorum); experiment: Test 11 Greenhouse Whitefly, egg plant leaf disk (mixtures); conditions: use rate 2500 ppm
Description: For evaluating control of Greenhouse Whitefly (Trialeurodes vaporariorum) the test unit consisted of 96-well-microtiter plates containing a leaf disk of egg plant leaf disk with white fly eggs.
The compounds or mixtures were formulated using a solution containing 75% water and 25% DMSO. Different concentrations of formulated compounds or mixtures were sprayed onto the insect diet at 2.5 μl, using a custom built micro atomizer, at two replications.
as §3
After application, microtiter plates were incubated at 23±1° C., 65±5% RH for 6 days. Mortality of hatched crawlers was then visually assessed.

[4] = test system: green peach aphid (Myzus persicae); experiment: Test 8 green peach aphid, artificial diet (mixtures)
Source text: as §1, §2, §3, §4

[5] = test system: boll weevil (Anthonomus grandis); experiment: Test 3 boll weevil, insect diet with eggs (mixtures)
Description: (§7) For evaluating control of boll weevil (Anthonomus grandis) the test unit consisted of 24-well-microtiter plates containing an insect diet and 20-30 A. grandis eggs.
(§8) The compounds or mixtures were formulated using a solution containing 75% water and 25% DMSO. Concentrations of formulated compounds or mixtures were sprayed onto the insect diet at 20 μl, using a custom built micro atomizer, at two replications.
as §3
(§9) After application, microtiter plates were incubated at 23±1° C., 50±5% RH for 5 days. Egg and larval mortality was then visually assessed.

[6] = test system: vetch aphid (Megoura viciae); experiment: Test 7 vetch aphid, leaf disks (mixtures); conditions: use rate 2500 ppm
Description: For evaluating control of vetch aphid (Megoura viciae) through contact or systemic means the test unit consisted of 24-well-microtiter plates containing broad bean leaf disks.
The compounds or mixtures were formulated using a solution containing 75% water and 25% DMSO. Concentrations of formulated compounds or mixtures were sprayed onto the leaf disks at 2.5 μl, using a custom built micro atomizer, at two replications.
as §3
After application, the leaf disks were air-dried and 5-8 adult aphids placed on the leaf disks inside the microtiter plate wells. The aphids were then allowed to suck on the treated leaf disks and incubated at 23±1° C., 50±5% RH for 5 days. Aphid mortality and fecundity was then visually assessed.

[7] = test system: Cowpea aphid (Aphis craccivora); experiment: B.3 Cowpea aphid leaf disk test; conditions: foliar, 120 h, Cowpea aphid, Dose 1 ppm, 5 days, read-out: Mortality %
Description: If not otherwise specified, the test solutions are prepared as follows:
The active compound is dissolved at the desired concentration in a mixture of 1:1 (vol:vol) distilled water: acetone. The test solution is prepared at the day of use.
B.3 Cowpea aphid (Aphis craccivora):
For evaluating control of Cowpea aphid through contact or systemic means the test unit consists of 24-well-microtiter plates containing broad bean leaf disks.
The compounds are formulated using a solution containing 75% v/v water and 25% v/v DMSO. Different concentrations of formulated compounds are sprayed onto the leaf disks at 2.5 μl, using a custom built micro atomizer, at two replications.
After application, the leaf disks are air-dried and 5-8 adult aphids placed on the leaf disks inside the microtiter plate wells. The aphids are then allowed to suck on the treated leaf disks and incubated at about 23±1° C. and about 50±5% relative humidity for 5 days. Aphid mortality and fecundity is then visually assessed.

[8] = test system: Rice green leafhopper (Nephotettix virescens); experiment: B.1 Rice green leafhopper, sprayed rice seedlings; conditions: Rice green leafhopper, Dose 1 ppm, after 72 hours, read-out: Mortality %
Description: B.1 Rice Green Leafhopper (Nephotettix virescens):
(§10) Rice seedlings are cleaned and washed 24 hours before spraying. The active compounds are formulated in 50:50 acetone:water (vol:vol), and 0.1% vol/vol surfactant (EL 620) is added. Potted rice seedlings are sprayed with 5 ml test solution, air dried, placed in cages and inoculated with 10 adults. Treated rice plants are kept at about 28-29° C. and relative humidity of about 50-60%. Percent mortality is recorded after 72 hours.

[9] = test system: Rice brown plant hopper (Nilaparvata lugens); experiment: B.2 Rice brown plant hopper, sprayed rice seedlings; conditions: Rice brown plant hopper, Dose 1 ppm, after 72 hours, read-out: Mortality %
Description: B.2 Rice Brown Plant Hopper (Nilaparvata lugens):
as §10, with “(vol:vol)” for “(vol:vol),”

[10] = test system: Thrips (Dichromothrips corbetti); experiment: B.4 Thrips floral-immersion test; conditions: Dose 10 ppm, 72 hours after treatment, read-out: Mortality %
Description: B.4 Thrips (Dichromothrips Corbetti):
Dichromothrips corbetti adults used for bioassay are obtained from a colony maintained continuously under laboratory conditions. For testing purposes, the test compound is diluted in a 1:1 mixture of acetone:water (vol:vol), plus 0.01% vol/vol Alkamuls® EL 620 surfactant.
Thrips potency of each compound is evaluated by using a floral-immersion technique. Plastic petri dishes are used as test arenas. All petals of individual, intact orchid flowers are dipped into treatment solution and allowed to dry. Treated flowers are placed into individual petri dishes along with about 20 adult thrips. The petri dishes v then covered with lids. All test arenas are held under continuous light and a temperature of about 28° C. for duration of the assay. After 3 days, the numbers of live thrips are counted on each flower, and along inner walls of each petri dish. The percent mortality is recorded 72 hours after treatment.

[11] = test system: boll weevil (Anthonomus grandis); experiment: Test 9 boll weevil, insect diet with eggs (mixtures)
Description: as §7, §8, §3, §9

[12] = test system: tobacco budworm (Heliothis virescens); experiment: Test 10 tobacco budworm, insect diet with eggs (mixtures); conditions: use rate 2500 ppm
Description: as §5
The compounds or mixtures were formulated using a solution containing 75% water and 25% DMSO. Different concentrations of formulated compounds or mixtures were sprayed onto the insect diet at 10 μl, using a custom built micro atomizer, at two replications.
as §3, §6

[13] = test system: brown planthopper (Nilaparvata lugens); experiment: Test 6 brown planthopper, foliar spray (mixtures); conditions: Table 6.1, after 7 days, solo application Pymetrozine, use rate 300 ppm
Description: For evaluating control of brown planthopper (Nilaparvata lugens) by foliar spray method. Clean potted rice seedlings with upper leaf portion cut are properly labeled. Placed three potted rice plants per treatment concentration/combination on top of the rotating disc (270 mm) and sprayed with the 12 mL spray solution. Treated plants are allowed to air-dry in the laboratory for about an hour. After air-drying, covered each treated rice plant. Each treated plant was infested with brown planthoppers using a suction vacuum. Plants are maintained at 27° C.±1° C., 50±5% RH and 24 hours light conditions in a holding room. Percent mortality is recorded 7 days after infestation by counting both the dead and alive brown planthoppers on the plants and on the water.

Compound: CC1(C)C(C=C(Cl)Cl)C1C(=O)OC(C#N)c1cccc(Oc2ccccc2)c1 (stereo not drawn) [Alpha-Cypermethrin, alpha-cypermethrin, reference compound]
- Average control % ([1]; Table 2.6, solo application Alpha-Cypermethrin, use rate 10 ppm): 0%
- Average control % ([2]; Table 4.2, solo application Alpha-Cypermethrin, use rate 2 ppm): 50%

Compound: CC(C)N1C(=O)N(c2ccccc2)CS/C1=N\C(C)(C)C [Buprofezin, buprofezin, reference compound]
- Average control % ([3]; Table 11.2, solo application Buprofezin): 50%

Compound: C[C@@H](NC(=O)C(C#N)C(C)(C)C)c1ccc(Cl)cc1Cl (stereo partly shown) [Dicyclomet, dicyclomet, reference compound]
- Average control % ([4]; Table 8.2, solo application Dicyclomet, use rate 2500 ppm): 0%

Compound: N#CCNC(=O)c1cnccc1C(F)(F)F [Flonicamid, flonicamid, reference compound]
- Average control % ([1]; Table 2.5, solo application Flonicamid, use rate 2 ppm): 0%

Compound: O=C(NC(=O)c1c(F)cccc1F)Nc1ccc(Oc2ccc(C(F)(F)F)cc2Cl)cc1F [Flufenoxuron, flufenoxuron, reference compound]
- Average control % ([1]; Table 2.2, solo application Flufenoxuron, use rate 0.8 ppm): 0%
- Average control % ([5]; Table 3.1, solo application Flufenoxuron, use rate 0.8 ppm): 0%

Compound: CON=CNC(=O)c1ccc(C2=NOC(c3cc(Cl)cc(Cl)c3)(C(F)(F)F)C2)cc1C (stereo not shown) [Fluxametamide, fluxametamide, reference compound]
- Average control % ([5]; Table 3.3, solo application Fluxametamide, use rate 0.4 ppm): 25%

Compound: Cc1nn(C)c(Cl)c1C(=O)Nc1cccc2c1C(C)OC2(C)C (stereo not shown) [Furametpyr, furametpyr, reference compound]
- Average control % ([6]; Table 7.1, solo application Furametpyr): 0%

Compound: C[n+]1c([O-])c(-c2ccccc2)c(=O)n2c1SC[C@H]2c1cnc(Cl)s1 [I-S-1, S-3-(2-chlorothiazol-5-yl)-8-methyl-7-oxo-6-phenyl-2,3-dihydrothiazolo[3,2-a] pyrimidin-8-ium-5-olate]
- mortality at 1 ppm [7]: 0%
- mortality at 1 ppm [8]: 0%
- mortality at 1 ppm [9]: 0%
- mortality at 10 ppm [10]: 0%

Compound: COC(=O)N(C(=O)N1CO[C@@]2(C(=O)OC)Cc3cc(Cl)ccc3C2=N1)c1ccc(OC(F)(F)F)cc1 [Indoxacarb, indoxacarb, reference compound]
- Average control % ([1]; Table 2.4, solo application Indoxacarb, use rate 2 ppm): 0%

Compound: COCC(=O)N(c1c(C)cccc1C)C(C)C(=O)OC (stereo not shown) [Metalaxyl, metalaxyl, reference compound]
- Average control % ([6]; Table 7.2, solo application Metalaxyl): 0%
- Average control % ([11]; Table 9.2, solo application Metalaxyl, use rate 500 ppm): 0%

Compound: Cc1nn(C)c(F)c1C(=O)Nc1ccccc1C(C)CC(C)C (stereo not shown) [Penflufen, penflufen, reference compound]
- Average control % ([11]; Table 9.1, solo application Penflufen, use rate 2500 ppm): 0%

Compound: C=CCOC1=NS(=O)(=O)c2ccccc21 [Probenazole, probenazole, reference compound]
- Average control % ([4]; Table 8.1, solo application Probenazole, use rate 500 ppm): 0%
- Average control % ([12]; Table 10.1, solo application Probenazole): 0%

Compound: CC1=NNC(=O)N(/N=C/c2cccnc2)C1 [Pymetrozine, pymetrozine, reference compound]
- Average control % ([2]; Table 4.1, solo application Pymetrozine, use rate 10 ppm): 0%
- Average control % [13]: 26%

Compound: O=C1CCc2cccc3c2N1CC3 [Pyroquilon, pyroquilon, reference compound]
- Average control % ([12]; Table 10.2, solo application Pyroquilon): 0%

Compound: C[Si](C)(C)CC(O)(Cn1cncn1)c1ccc(F)cc1 (stereo not shown) [Simeconazol, simeconazole, reference compound]
- Average control % ([3]; Table 11.1, solo application Simeconazol): 0%

Compound: O=c1c(-c2cccc(C(F)(F)F)c2)c([O-])[n+](Cc2cncnc2)c2ccccn12 [Triflumezopyrim, triflumezopyrim, reference compound]
- Average control % ([1]; Table 2.3, solo application Triflumezopyrim, use rate 0.4 ppm): 0%

Compound: spinosad [reference compound]
- Average control % ([1]; Table 2.1, solo application Spinosad, use rate 4 ppm): 0%
